# Experimental data published in US20080161255A1, “Use of Parp Inhibitors for Prevention and Treatment of Diabetic and Insulin Resistance Complications” (priority 2003, published 2008).
# Key:
# prostacyclin synthetase = test: Arterial prostacyclin synthetase activity in insulin resistant Fatty Zucker Rats; format: in vivo; conditions: Fatty Zucker Rats treated for one week; untreated had only 1% of control Zucker rat activity
# From the text: In order to examine whether this phenomenon was present in vivo, and thus had direct clinical relevance, we studied an accepted model of non-diabetic insulin resistance, the Fatty Zucker Rat. In these rats, we examined the activity of the endothelial cell surface enzyme prostacyclin synthetase, which produces a major anti-atherosclerotic product, prostacyclin. This enzyme is known to be directly inactivated by reactive oxygen species.
# protein kinase C = test: Protein kinase C activity (membrane fraction) in bovine aortic endothelial cells; format: cell-based; conditions: 30 mM glucose plus PJ34
# Method: (§1) Cell culture conditions. Confluent bovine aortic endothelial cells (passage 4-10) were maintained in Eagle's MEM containing 0.4% FBS, essential and non-essential amino acid and antibiotics. Cells were incubated for 3 days prior to determination of PKC activity, 48 hr prior to determination of hexosamine pathway activity, for 5 days prior to determination of advanced glycation end product formation, and for 6 hr prior to determination of NFκB activation. Cells were infected with adenoviruses 48 hr prior to addition of 30 mM glucose.
# Protein kinase C activity. The assay was performed according to the manufacturer's instructions using the Protein Kinase C Assay System (Invitrogen, Carlsbad, Calif.).
# GAPDH [1] = test: Poly(ADP-ribosyl)ation of GAPDH (immunoprecipitation and western blotting); format: cell-based, bovine; conditions: adenoviral overexpression or 3 mM PJ34
# Method: Immunoprecipitation. BAECs were plated in 100 mm cell culture plates and grown to confluency. Cells (2×10^7) were scraped from the plates, and 500 μg of protein was immunoprecipitated with 4 μg of the indicated antibody and 20 μl of Protein A Sepharose 4B (Amersham Phamacia Biotech) in binding buffer (final concentration […]).
# Western blotting. Immunoprecipitated proteins electrophoresed on 10% PAGE gels were transferred onto nitrocellulose membranes. The immunoblots were developed with 1:1000 dilutions of anti-poly(ADPribose) IgG, and the signal was detected with the ECL System according to the manufacturer's instructions (Amersham Pharmacia Biotech). The images were scanned into a Molecular Dynamics FluorImager and analyzed using the ImageQuant 5.5 program.
# [2] = tested on: intracellular AGE formation; test: Intracellular advanced glycation endproduct formation (quantitative immunoblotting); format: cell-based, bovine; conditions: 30 mM glucose plus PJ34
# Method: as §1
# Advanced glycation endproducts. Equal amounts of cell extract protein were used for quantitative immunoblotting performed as described (14). Methylglyoxal-derived imidazole advanced glycation endproducts were detected using monoclonal antibody 1H7G5 (identified above as IG7) at a 1:10,000 dilution. Immunocomplexes were visualized using an ECF kit according to the manufacturer's instructions (Amersham International, Piscataway, N.J.) and quantified using a Molecular Dynamics FluorImager and its ImageQuant 4.0 analytical software.
# hexosamine pathway = test: Hexosamine pathway activity (UDP-GlcNAc concentration by HPLC); format: cell-based, bovine; conditions: 30 mM glucose plus PJ34
# Method: as §1
# Hexosamine pathway activity. Hexosamine pathway activity was assessed by measuring UDP-GlcNAc concentration. Cells were homogenized in three volumes (600 μl) of cold 0.6 M perchloric acid and kept at 0° C. for 10 min. The precipitated proteins were removed by centrifugation for 5 min at 13,500×g, and UDP-GlcNAc in the supernatant was determined by HPLC as previously described (13).
# GAPDH [3] = test: GAPDH activity in bovine aortic endothelial cells; format: cell-based; conditions: 30 mM glucose; adenoviral overexpression or 3 mM PJ34
# Method: Cell culture conditions. Confluent bovine aortic endothelial cells (passage 4-10) were maintained in Eagle's MEM containing 0.4% FBS, essential and non-essential amino acid and antibiotics. […] Cells were infected with adenoviruses 48 hr prior to addition of 30 mM glucose. Oligonucleotide synthesis and treatment of cells. […] The S-antisense GAPDH had the following sequence: [NT]. Scrambled oligonucleotides ([NT]) were used as controls. Oligo solutions were prepared in 10 mM TRIS buffer, pH 7.4, containing 1 mM EDTA NaCl. […], and the solution was added to the cells for 2 hr. GAPDH activity. BAECs were grown to confluency, harvested by using trypsin-EDTA after washing twice with PBS, and resuspended in lysis buffer. […] Protein was measured by using the Bio-Rad Coomassie Plus Protein Assay System. GAPDH activity was determined as described previously (Garcia et al., 2001; Tau et al., 1994).
# NFκB = NFκB activation (fluorescence in situ DNA-protein binding assay); format: cell-based, bovine; conditions: 30 mM glucose plus PJ34
# Method: as §1
# NFκB activation. A fluorescence in situ DNA-protein binding assay was performed in cultured cells as described (Kurose et al., 1997), and fluorescence per cell was determined using IP Lab Spectrum (Scanalytics, Fairfax, Va.).
# [4] = tested on: bovine aortic endothelial cells; test: FFA-induced superoxide / reactive oxygen species generation in endothelial cells; format: cell-based; conditions: FFA-treated endothelial cells
# From the text: FIG. 8 is a graph of experimental data showing the effects of inhibitors of free fatty acid (FFA) oxidation (TDGA), UCP-1, and MnSOD on FFA-induced superoxide generation in bovine aortic endothelial cells.
# Since mitochondrial β-oxidation of fatty acids yields the same electron donors as those obtained from glucose metabolism, that is, NADH and FADH2, we hypothesized that increased free fatty acid flux from adipose tissue to vascular endothelium would also increase mitochondrial production of superoxide.
# [5] = target: T1, poly(ADP-ribose) polymerase (Bos taurus, UniProt P18493); test: Poly(ADP-ribose) polymerase activity in aortic endothelial cells; format: cell-based, bovine; conditions: aortic endothelial cells incubated with oleic acid at levels found in non-diabetic insulin resistance subjects
# T1 construct: endogenous in cells; host or cells: bovine aortic endothelial cells
# Method: Poly(ADP-ribose) polymerase activity. Cells were incubated for 5 min at 37° C. in assay buffer containing 125 nmol NAD^+ spiked with 0.25 μCi of ^3H-NAD^+ (Amersham) as described (12). Enzyme activity was determined by measuring cpm incorporated into protein.
# T1 sequence (P18493 whole entry): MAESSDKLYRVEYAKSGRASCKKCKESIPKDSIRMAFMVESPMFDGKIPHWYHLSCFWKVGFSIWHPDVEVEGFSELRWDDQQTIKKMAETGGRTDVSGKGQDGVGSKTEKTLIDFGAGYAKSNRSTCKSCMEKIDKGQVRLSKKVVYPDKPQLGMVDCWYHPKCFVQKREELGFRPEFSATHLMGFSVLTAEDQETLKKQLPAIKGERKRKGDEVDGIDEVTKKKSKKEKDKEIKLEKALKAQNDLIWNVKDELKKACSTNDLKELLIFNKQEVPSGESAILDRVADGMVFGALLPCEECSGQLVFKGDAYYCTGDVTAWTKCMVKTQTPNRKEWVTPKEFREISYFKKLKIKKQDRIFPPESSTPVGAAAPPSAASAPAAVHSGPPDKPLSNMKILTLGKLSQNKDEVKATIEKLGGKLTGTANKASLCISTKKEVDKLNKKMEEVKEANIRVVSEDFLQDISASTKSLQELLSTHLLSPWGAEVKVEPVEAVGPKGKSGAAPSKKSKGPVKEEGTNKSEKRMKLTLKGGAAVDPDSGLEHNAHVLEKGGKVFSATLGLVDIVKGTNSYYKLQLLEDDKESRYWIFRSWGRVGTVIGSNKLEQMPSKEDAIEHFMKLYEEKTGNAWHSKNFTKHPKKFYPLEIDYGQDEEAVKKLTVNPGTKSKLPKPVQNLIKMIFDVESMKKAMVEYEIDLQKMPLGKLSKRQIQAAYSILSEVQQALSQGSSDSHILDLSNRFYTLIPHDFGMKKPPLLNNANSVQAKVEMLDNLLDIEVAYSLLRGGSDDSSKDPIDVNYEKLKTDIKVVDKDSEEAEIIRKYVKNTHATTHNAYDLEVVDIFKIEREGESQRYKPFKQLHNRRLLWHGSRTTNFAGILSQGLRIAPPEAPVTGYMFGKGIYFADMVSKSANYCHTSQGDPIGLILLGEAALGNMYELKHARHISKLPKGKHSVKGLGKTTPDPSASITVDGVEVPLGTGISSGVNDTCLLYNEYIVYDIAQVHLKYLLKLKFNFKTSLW
structure (smiles),measurement,setting,value
"O=C(O)c1ccc(-c2c3nc(c(-c4ccc(C(=O)O)cc4)c4ccc([n-]4)c(-c4ccc(C(=O)O)cc4)c4nc(c(-c5ccc(C(=O)O)cc5)c5ccc2[n-]5)C=C4)C=C3)cc1.[Mn+3] [MnTBAP, Manganese (III) tetrakis(4-benzoic acid) porphyrin]",activity of prostacyclin synthetase in aortas,prostacyclin synthetase,restored to supranormal levels
"CN(C)CC(=O)Nc1ccc2[nH]c(=O)c3ccccc3c2c1 [PJ34, N-(oxo-5,6-dihdrophenanthridin-2-yl)-N,N-dimethylacetamide]",activation of PKC by 30 mM glucose,protein kinase C,completely prevented
same,poly(ADP-ribosyl)ation of GAPDH induced by 30 mM glucose,GAPDH [1],completely prevented
same,effect of 30 mM glucose on intracellular AGE formation,[2],completely prevented
same,effect of 30 mM glucose on UDP-N-acetylglucosamine concentration (hexosamine pathway),hexosamine pathway,completely prevented
same,hyperglycemia-induced inhibition of GAPDH activity,GAPDH [3],prevention
same,effect of 30 mM glucose on NFκB activation,NFκB,completely prevented
CCCCCCCCCCCCCCC1(C(=O)O)CO1 (stereo not shown) [TDGA],ability of FFAs to induce reactive oxygen species in endothelial cells,[4],inhibited
O=C(O)c1cccnc1 [nicotinic acid],activity of prostacyclin synthetase in aortas,prostacyclin synthetase,restored to normal levels
CCCCCCCC/C=C\CCCCCCCC(=O)O [oleic acid],increase of PARP activation,[5],1.5 fold
